What all share (experiment): NCI tumour cell line growth inhibition, 48 h
The test system of assay [1] is CAKI-1.
Assay [2] concerns HCT-116.
Assay [3] has as its system HOP-62.
Assay [4] deals with HT-29.
In assay [5] the test system is IGROV-1.
In assay [6] the test system is K562.
The subject of assay [7] is KM12.
Assay [8] has as its system Malme-3M.
In assay [9] the test system is NCI-H226.
The test system of assay [10] is OVCAR-3.
Assay [11] deals with OVCAR-5.
Assay [12] relates to SF-268.
In assay [13] the test system is SK-MEL-28.
Assay [14] relates to SK-MEL-2.
The test system of assay [15] is SK-MEL-5.
The subject of assay [16] is SK-OV-3.
The test system of assay [17] is TK-10.
Assay [18] concerns UACC-257.
For assay [19], the system named is UO-31.
The subject of assay [20] is RXF 393.

Molecules are shown by their SMILES.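 Interpolation was linear, between the two tested concentrations surrounding the appropriate level; five concentrations were tested over 48 hours in 96-well plates. At the GI50, growth is halved.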 The source made the active and inactive calls. No stated cut-off is given here; in the data, active = GI50 up to about 1.1 µM and inactive = higher.

Consider `CC(=O)OCC1=C(COC(C)=O)C(=O)c2c(O)ccc(O)c2C1=O`, for which the GI50 is 5.66 µM (inactive) in assay [1]; 12.1 µM (inactive) in [2]; 21 µM (inactive) in assay [3]; 11.7 µM (inactive) in assay [4]; 16 µM (inactive) in [5]; 17.9 µM (inactive) in assay [6]. Moreover, the GI50 in [7] was 13.3 µM (inactive); in [8] it was 4.28 µM (inactive); in assay [9], 15.8 µM (inactive); in assay [10], 7.1 µM (inactive); in assay [11] it was 16.4 µM (inactive); in [12] it was 13.8 µM (inactive). For the same compound, the GI50 in assay [13] is 4.9 µM (inactive); in assay [14], 3.11 µM (inactive); in [15], 14.8 µM (inactive); in [16], 18.8 µM (inactive); in assay [17] it was 16.3 µM (inactive); in assay [18], 5.14 µM (inactive). In addition, in assay [19], the GI50 was 15.4 µM (inactive).
For the compound `CN(C)c1ccc(/C=N/c2ccc(Oc3ccc(Cl)cc3)c(Cl)c2)cc1`, the GI50 is 21.3 µM (inactive) in assay [1]; 5.2 µM (inactive) in [2]; 18.7 µM (inactive) in [3]; 16.1 µM (inactive) in assay [4]; 21.7 µM (inactive) in assay [5]; 17.1 µM (inactive) in assay [7]. For the same compound, the GI50 in assay [8] is 15.3 µM (inactive); in assay [9] it was 21.6 µM (inactive); in assay [10], 12.9 µM (inactive); in assay [11], 28.3 µM (inactive); in [12], 13.7 µM (inactive); in assay [13] it was 19.3 µM (inactive). Moreover, the GI50 was 14.5 µM (inactive) in [14]; 15 µM (inactive) in assay [15]; 26.8 µM (inactive) in assay [16]; 32.4 µM (inactive) in assay [17]; 19.8 µM (inactive) in assay [18]; 10.7 µM (inactive) in assay [19].
Regarding `COc1ccc(CC/N=C2\CCC(C(=O)NCCc3ccc(OC)c(OC)c3)N2)cc1OC` (centres undefined), the GI50 in assay [1], in assay [2], in assay [3], in assay [4], in assay [5] and in assay [6] was > 100 µM (inactive) each time. The GI50 in assay [7], in assay [8], in assay [9], in assay [10], in assay [11] and in [12] was > 100 µM (inactive) throughout. Further, the GI50 in assay [13], in [14], in assay [15], in [16], in assay [17] and in [18] was > 100 µM (inactive) in each case. In [19], the GI50 was > 100 µM (inactive).
Take `C/C=C1\NC(=O)[C@H]2CSSCCC=C[C@H](CC(=O)N[C@H](C(C)C)C(=O)N2)OC(=O)[C@H](C(C)C)NC1=O`: the GI50 is 0.00159 µM (active) in assay [1]; 9.2e-05 µM (active) in [2]; 9.79e-05 µM (active) in assay [3]; 0.000131 µM (active) in [4]; 0.000154 µM (active) in [7]; 0.000123 µM (active) in [9]. The GI50 in assay [10] is 0.000412 µM (active); in assay [20] it was 0.0008 µM (active); in assay [12], 0.000318 µM (active); in [13], 9.98e-05 µM (active); in assay [15], 6.65e-05 µM (active); in assay [17] it was 0.000226 µM (active). In addition, the GI50 in assay [19] is 0.00731 µM (active).

For the origin of these results see ChEMBL document CHEMBL1201862, “PubChem BioAssay data set” (2004).
